In patent US20100093776A1, “Organic Compounds and Their Uses” (Novartis AG, priority 2006, published 2010):

What was measured:
CDK1/cyclinB = target: T1, CDK1/cyclinB (Homo sapiens, UniProt P06493); experiment: CDK1/cyclinB IMAP fluorescence polarization kinase assay; assay type: biochemical; conditions: 52 μM ATP, two hours at room temperature
T1 construct: purchased Millipore
Experimental: (§1) Kinase assays were performed on recombinant purified enzymes using the non-radioactive IMAP fluorescence polarization assay format.
(§2) Compound stocks were prepared and diluted in DMSO and were added to kinase reactions at a 1/100 dilution for a final concentration of 1% DMSO. The components were added together to final concentrations listed in the tables below and incubated for two hours at room temperature.
(§3) The reactions were stopped by addition of stop solution.
(§4) CDK9/CDK1/CDK7: final stop concentration is 1× Developer buffer (85% A/15% B), IMAP beads 1/400
(§5) The samples were allowed to incubate for one more hour at room temperature and then the fluorescence polarization was measured. The plate normalized millipolarization (mP) values were plotted against the log of compound concentration for each compound and IC50 values were calculated using the spotfire IC50 calculator and confirmed by visual analysis.

CDK2/cyclinA = target: T2, CDK2/cyclinA (Homo sapiens, UniProt P24941); experiment: CDK2/cyclinA IMAP fluorescence polarization kinase assay; assay type: biochemical; conditions: 4.68 μM ATP, two hours at room temperature
T2 construct: purchased Millipore
Experimental: as §1, §2, §3
CDK2: final stop concentration is 1× Developer buffer (100% A), IMAP beads 1/400
as §5

CDK9/cyclinT1 = target: T3, CDK9/cyclinT1 (Homo sapiens, UniProt P50750); experiment: CDK9/cyclinT1 IMAP fluorescence polarization kinase assay; assay type: biochemical; conditions: 6 μM ATP, two hours at room temperature
T3 construct: purchased Millipore
T3 sequence (P50750 whole entry): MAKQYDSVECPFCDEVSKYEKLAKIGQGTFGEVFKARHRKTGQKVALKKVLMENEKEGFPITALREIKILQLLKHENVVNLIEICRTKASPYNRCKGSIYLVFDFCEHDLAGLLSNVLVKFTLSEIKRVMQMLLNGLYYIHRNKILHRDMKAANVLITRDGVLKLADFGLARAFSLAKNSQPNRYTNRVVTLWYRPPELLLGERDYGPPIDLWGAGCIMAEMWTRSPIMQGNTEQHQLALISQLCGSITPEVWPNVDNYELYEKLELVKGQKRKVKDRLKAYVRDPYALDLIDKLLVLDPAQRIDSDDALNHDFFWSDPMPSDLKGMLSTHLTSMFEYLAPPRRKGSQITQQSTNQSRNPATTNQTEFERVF
T3 sequence (O60563 whole entry partner): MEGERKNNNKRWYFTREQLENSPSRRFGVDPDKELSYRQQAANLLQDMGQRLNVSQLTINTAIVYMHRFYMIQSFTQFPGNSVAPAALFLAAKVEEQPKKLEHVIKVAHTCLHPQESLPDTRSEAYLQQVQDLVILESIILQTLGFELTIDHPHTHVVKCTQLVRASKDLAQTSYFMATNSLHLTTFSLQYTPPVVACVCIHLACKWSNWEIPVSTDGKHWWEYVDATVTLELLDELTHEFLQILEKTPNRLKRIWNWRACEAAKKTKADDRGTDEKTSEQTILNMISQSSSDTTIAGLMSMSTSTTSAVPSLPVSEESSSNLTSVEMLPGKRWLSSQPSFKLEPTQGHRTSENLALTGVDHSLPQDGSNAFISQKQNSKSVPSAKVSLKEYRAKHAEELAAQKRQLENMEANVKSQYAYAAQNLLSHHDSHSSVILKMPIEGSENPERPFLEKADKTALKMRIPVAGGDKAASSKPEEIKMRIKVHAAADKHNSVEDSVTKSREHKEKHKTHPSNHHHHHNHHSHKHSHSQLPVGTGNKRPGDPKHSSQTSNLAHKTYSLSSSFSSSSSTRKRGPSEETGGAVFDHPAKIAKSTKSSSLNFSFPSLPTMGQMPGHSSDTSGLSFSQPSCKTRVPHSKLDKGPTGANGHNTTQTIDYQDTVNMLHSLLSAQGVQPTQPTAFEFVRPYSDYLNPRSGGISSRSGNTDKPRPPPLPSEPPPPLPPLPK
Experimental: as §1, §2, §3, §4, §5

[1] = test system: RNA polymerase II CTD serine2 phosphorylation in Hep3B cells; experiment: H5 (Ser2) Ab High Content Screen: RNA polymerase II CTD serine2 phosphorylation Assay; assay type: cell-based; conditions: Homo sapiens, compounds for 2 hours, H5 antibody nuclear staining
Experimental: H5 (also referred as Ser2) Ab High Content Screen: RNA polymerase II CTD serine2 phosphorylation Assay
1. Cells are plated into 384 well plates: 30 μl of Hep3B cells (4,000 cells/30 μl) in DMEM with 3% FBS are plated into wells of a tissue culture treated clear bottomed 384 well plate. Cells are allowed to adhere during an overnight incubation.
2. Cells are treated with compounds for two hours: 10 μl of DMEM with 3% FBS is added to each well with a final concentration of DMSO equal to 1%. Cells are incubated with compounds for 2 hours.
3. Cells are fixed and permeabilized. Cells are washed with 30 mM HEPES pH=7.3 then fixed in 4% paraformaldehyde in 30 mM HEPES pH=7.3 for one hour at room temperature. The fix is removed by washing the cells with Tris buffered saline (TBS) and the cells are permeabilized by incubation in TBS with 0.5% triton X-100 for 30 minutes at room temperature. Triton is removed by washing the cells with TBS.
4. Cells are stained with H5 monoclonal antibody and nuclei are stained with Hoechst dye 33342: Block cells by incubating in TBS with 1% Bovine serum albumin (BSA) for one hour at room temperature. Incubate primary H5 Ab (1/250) overnight at 4 degrees in PBS with 1% BSA and 0.1% Tween-20. The next day wash cells with TBS. Add secondary antibody, anti-IgM labeled with cy5 (1/450), and Hoecsht dye 33342 (10 μg/ml) in TBS with 1% BSA and incubate one hour at room temperature. Wash cells with PBS.
5. Measure staining using the In-cell Analyzer system from GE Healthcare. Nuclei were located using the Hoecsht 33342 dye signal and H5 Antibody staining was quantified by measuring cy5 label. Nuclear intensity of H5 staining was plotted against the log of compound concentration for each compound and IC-50 values were calculated using the spotfire IC-50 calculator and confirmed by visual analysis.

CDK4 = CDK4 (Homo sapiens, UniProt P11802); experiment: CDK4 kinase assay (IMAP fluorescence polarization); assay type: biochemical
CDK4, sequence (P11802 whole entry, species assumed): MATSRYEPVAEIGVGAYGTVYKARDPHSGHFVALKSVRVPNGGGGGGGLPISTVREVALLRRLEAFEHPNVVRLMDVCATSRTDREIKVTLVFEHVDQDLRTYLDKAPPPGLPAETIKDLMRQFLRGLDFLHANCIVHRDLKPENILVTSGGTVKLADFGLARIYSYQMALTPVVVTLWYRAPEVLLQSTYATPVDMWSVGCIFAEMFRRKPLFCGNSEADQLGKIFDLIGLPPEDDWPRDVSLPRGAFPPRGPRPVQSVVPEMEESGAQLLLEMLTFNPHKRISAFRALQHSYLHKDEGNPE
CDK4, sequence (P24385 whole entry partner, species assumed): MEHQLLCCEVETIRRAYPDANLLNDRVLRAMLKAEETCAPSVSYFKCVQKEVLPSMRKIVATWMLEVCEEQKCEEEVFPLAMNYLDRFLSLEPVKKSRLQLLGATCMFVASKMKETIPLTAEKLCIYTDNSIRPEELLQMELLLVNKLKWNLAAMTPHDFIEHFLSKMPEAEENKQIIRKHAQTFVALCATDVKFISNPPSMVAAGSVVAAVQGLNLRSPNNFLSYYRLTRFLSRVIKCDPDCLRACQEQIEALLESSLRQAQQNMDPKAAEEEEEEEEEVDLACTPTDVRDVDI
Experimental: as §1, §2, §5

CDK5 = CDK5 (Homo sapiens, UniProt Q00535); experiment: CDK5 kinase assay (IMAP fluorescence polarization); assay type: biochemical
CDK5, sequence (Q00535 whole entry, species assumed): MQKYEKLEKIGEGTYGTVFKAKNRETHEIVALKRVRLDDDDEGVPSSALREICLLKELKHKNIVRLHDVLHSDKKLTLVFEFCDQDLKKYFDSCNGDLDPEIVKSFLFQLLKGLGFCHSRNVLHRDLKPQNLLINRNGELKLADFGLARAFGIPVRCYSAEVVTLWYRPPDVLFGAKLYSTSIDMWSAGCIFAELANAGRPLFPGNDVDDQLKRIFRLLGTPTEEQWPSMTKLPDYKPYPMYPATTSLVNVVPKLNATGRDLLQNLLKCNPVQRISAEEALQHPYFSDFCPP
CDK5, sequence (Q15078 whole entry partner, species assumed): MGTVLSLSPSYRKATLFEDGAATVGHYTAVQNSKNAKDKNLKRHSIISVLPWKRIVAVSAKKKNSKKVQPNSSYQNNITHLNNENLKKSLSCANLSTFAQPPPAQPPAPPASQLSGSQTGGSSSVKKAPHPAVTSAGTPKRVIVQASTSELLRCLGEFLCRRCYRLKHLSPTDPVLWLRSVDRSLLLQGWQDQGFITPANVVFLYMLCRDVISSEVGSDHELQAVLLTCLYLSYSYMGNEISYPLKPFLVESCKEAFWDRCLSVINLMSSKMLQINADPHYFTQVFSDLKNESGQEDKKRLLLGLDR
Experimental: as §1, §2, §5

T1 sequence (P06493 whole entry): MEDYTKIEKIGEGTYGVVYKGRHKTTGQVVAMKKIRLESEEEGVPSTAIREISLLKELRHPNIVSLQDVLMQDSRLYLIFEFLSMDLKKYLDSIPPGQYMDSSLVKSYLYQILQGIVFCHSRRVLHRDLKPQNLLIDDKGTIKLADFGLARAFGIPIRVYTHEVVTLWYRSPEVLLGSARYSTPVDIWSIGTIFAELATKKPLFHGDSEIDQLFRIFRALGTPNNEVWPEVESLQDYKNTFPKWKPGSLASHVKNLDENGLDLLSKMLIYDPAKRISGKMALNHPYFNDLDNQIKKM
T1 sequence (P14635 whole entry partner): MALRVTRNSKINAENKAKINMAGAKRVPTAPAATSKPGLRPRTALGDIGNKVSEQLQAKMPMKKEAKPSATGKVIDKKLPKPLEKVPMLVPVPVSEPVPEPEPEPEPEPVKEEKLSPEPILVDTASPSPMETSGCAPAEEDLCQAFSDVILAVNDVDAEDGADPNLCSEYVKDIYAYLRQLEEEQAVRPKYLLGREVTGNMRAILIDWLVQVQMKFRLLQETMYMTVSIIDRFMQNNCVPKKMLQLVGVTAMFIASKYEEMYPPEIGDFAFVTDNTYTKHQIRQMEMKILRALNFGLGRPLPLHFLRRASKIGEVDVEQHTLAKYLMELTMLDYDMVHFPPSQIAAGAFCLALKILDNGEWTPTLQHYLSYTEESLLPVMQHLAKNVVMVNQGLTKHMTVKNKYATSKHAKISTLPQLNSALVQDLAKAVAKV

SMILES | IC50 (CDK1/cyclinB) | IC50 (CDK2/cyclinA) | IC50 (CDK9/cyclinT1) | IC50 [1] | IC50 (CDK4) | IC50 (CDK5)
Cn1ccc2c(-c3ccnc(Nc4cccc(Cl)c4)n3)cccc21 [Compound 3, (3-Chloro-phenyl)-[4-(1-methyl-1H-indol-4-yl)-pyrimidin-2-yl]-amine] | 5 to 15 µM | < 5 µM | < 5 µM | – | – | –
CCn1ccc2c(-c3ccnc(Nc4cccc(Cl)c4)n3)cccc21 [Compound 4, (3-Chloro-phenyl)-[4-(1-ethyl-1H-indol-4-yl)-pyrimidin-2-yl]-amine] | < 5 µM | 5 to 15 µM | < 5 µM | – | – | –
CCOC(=O)Cn1ccc2c(-c3ccnc(Nc4cccc(Cl)c4)n3)cccc21 [Compound 5, Ethyl {4-[2-(3-chloro-phenylamino)-pyrimidin-4-yl]-indol-1-yl}acetate] | > 50 µM | > 50 µM | < 5 µM | – | – | –
Clc1cccc(Nc2nccc(-c3cccc4c3ccn4Cc3ccccc3)n2)c1 [Compound 6, [4-(1-Benzyl-1H-indol-4-yl)-pyrimidin-2-yl]-(3-chloro-phenyl)-amine] | > 50 µM | > 50 µM | < 5 µM | – | – | –
OCCn1ccc2c(-c3ccnc(Nc4cccc(Cl)c4)n3)cccc21 [Compound 7, 2-{4-[2-(3-chloroaniline)-pyrimidin-4-yl]-indol-1-yl}-ethanol] | 5 to 15 µM | < 5 µM | < 5 µM | – | – | –
OCCCn1ccc2c(-c3ccnc(Nc4cccc(Cl)c4)n3)cccc21 [Compound 8, 3-{4-[2-(3-Chloro-phenylamino)-pyrimidin-4-yl]-indol-1-yl}-propan-1-ol] | 5 to 15 µM | < 5 µM | < 5 µM | – | – | –
Clc1cccc(Nc2nccc(-c3cccc4c3ccn4CCN3CCOCC3)n2)c1 [Compound 9, (3-Chloro-phenyl)-{4-[1-(2-morpholin-4-yl-ethyl)-1H-indol-4-yl]-pyrimidin-2-yl}-amine] | > 50 µM | 5 to 15 µM | < 5 µM | 15 to 50 µM | – | –
CN(C)CCn1ccc2c(-c3ccnc(Nc4cccc(Cl)c4)n3)cccc21 [Compound 10, (3-Chloro-phenyl)-{4-[1-(2-dimethylamino-ethyl)-1H-indol-4-yl]-pyrimidin-2-yl}-amine] | < 5 µM | < 5 µM | < 5 µM | – | – | –
CN(C)CCCn1ccc2c(-c3ccnc(Nc4cccc(Cl)c4)n3)cccc21 [Compound 11, (3-Chloro-phenyl)-{4-[1-(3-dimethylamino-propyl)-1H-indol-4-yl]-pyrimidin-2-yl}-amine] | 5 to 15 µM | < 5 µM | < 5 µM | – | – | –
CNC(=O)Cn1ccc2c(-c3ccnc(Nc4cccc(Cl)c4)n3)cccc21 [Compound 12, 2-{4-[2-(3-Chloro-phenylamino)-pyrimidin-4-yl]-indol-1-yl}-N-methyl-acetamide] | < 5 µM | < 5 µM | < 5 µM | – | – | –
CN(C)C(=O)Cn1ccc2c(-c3ccnc(Nc4cccc(Cl)c4)n3)cccc21 [Compound 14, 2-{4-[2-(3-Chloro-phenylamino)-pyrimidin-4-yl]-indol-1-yl}-N,N-dimethyl-acetamide] | 5 to 15 µM | < 5 µM | < 5 µM | – | – | –
CC(C)(C)NC(=O)Cn1ccc2c(-c3ccnc(Nc4cccc(Cl)c4)n3)cccc21 [Compound 15, N-tert-Butyl-2-{4-[2-(3-chloro-phenylamino)-pyrimidin-4-yl]-indol-1-yl}-acetamide] | < 5 µM | < 5 µM | < 5 µM | – | – | –

Now from value to molecule:

IC50 (CDK1/cyclinB) | IC50 (CDK2/cyclinA) | IC50 (CDK9/cyclinT1) | IC50 [1] | IC50 (CDK4) | IC50 (CDK5) | SMILES
> 50 µM | > 50 µM | < 5 µM | – | – | – | CC(C)CNC(=O)Cn1ccc2c(-c3ccnc(Nc4cccc(Cl)c4)n3)cccc21 [Compound 16, 2-{4-[2-(3-Chloro-phenylamino)-pyrimidin-4-yl]-indol-1-yl}-N-isobutyl-acetamide]
> 50 µM | > 50 µM | > 50 µM | – | – | – | O=C(Cn1ccc2c(-c3ccnc(Nc4cccc(Cl)c4)n3)cccc21)NCc1ccccc1 [Compound 17, N-Benzyl-2-{4-[2-(3-chloro-phenylamino)-pyrimidin-4-yl]-indol-1-yl}-acetamide]
5 to 15 µM | < 5 µM | < 5 µM | – | – | – | O=C(Cn1ccc2c(-c3ccnc(Nc4cccc(Cl)c4)n3)cccc21)NCCO [Compound 18, 2-{4-[2-(3-Chloro-phenylamino)-pyrimidin-4-yl]-indol-1-yl}-N-(2-hydroxy-ethyl)-acetamide]
5 to 15 µM | > 50 µM | < 5 µM | – | – | – | NCCNC(=O)Cn1ccc2c(-c3ccnc(Nc4cccc(Cl)c4)n3)cccc21 [Compound 19, N-(2-Amino-ethyl)-2-{4-[2-(3-chloro-phenylamino)-pyrimidin-4-yl]-indol-1-yl}-acetamide]
> 50 µM | > 50 µM | < 5 µM | – | – | – | O=C(Cn1ccc2c(-c3ccnc(Nc4cccc(Cl)c4)n3)cccc21)N1CCNCC1 [Compound 20, 2-{4-[2-(3-Chloro-phenylamino)-pyrimidin-4-yl]-indol-1-yl}-1-piperazin-1-yl-ethanone]
> 50 µM | 15 to 50 µM | < 5 µM | – | – | – | NC1CCN(C(=O)Cn2ccc3c(-c4ccnc(Nc5cccc(Cl)c5)n4)cccc32)CC1 [Compound 21, 1-(4-Amino-piperidin-1-yl)-2-{4-[2-(3-chloro-phenylamino)-pyrimidin-4-yl]-indol-1-yl}-ethanone]
5 to 15 µM | < 5 µM | < 5 µM | – | – | – | O=C(Cn1ccc2c(-c3ccnc(Nc4cccc(Cl)c4)n3)cccc21)NCC1CCCN1 (centres unmarked) [Compound 22, 2-{4-[2-(3-Chloro-phenylamino)-pyrimidin-4-yl]-indol-1-yl}-N-pyrrolidin-2-ylmethyl-acetamide]
15 to 50 µM | > 50 µM | < 5 µM | – | – | – | O=C(Cn1ccc2c(-c3ccnc(Nc4cccc(Cl)c4)n3)cccc21)NCCN1CCCC1 [Compound 23, 2-{4-[2-(3-Chloro-phenylamino)-pyrimidin-4-yl]-indol-1-yl}-N-(2-pyrrolidin-1-yl-ethyl)-acetamide]
15 to 50 µM | 5 to 15 µM | < 5 µM | – | – | – | O=C(O)Cn1ccc2c(-c3ccnc(Nc4cccc(Cl)c4)n3)cccc21 [Compound 24, {4-[2-(3-Chloro-phenylamino)-pyrimidin-4-yl]-indol-1-yl}-acetic acid]
15 to 50 µM | 15 to 50 µM | < 5 µM | – | – | – | Cc1cnc(Nc2cccc(Cl)c2)nc1-c1cccc2[nH]ccc12 [Compound 30, (3-Chloro-phenyl)-[4-(1H-indol-4-yl)-5-methyl-pyrimidin-2-yl]-amine]
< 5 µM | < 5 µM | < 5 µM | – | < 5 µM | < 5 µM | Cc1cnc(Nc2cccc(S(N)(=O)=O)c2)nc1-c1cccc2[nH]ccc12 [Compound 32, 3-[4-(1H-Indol-4-yl)-5-methyl-pyrimidin-2-ylamino]-benzenesulfonamide]
< 5 µM | < 5 µM | < 5 µM | – | – | – | COc1cnc(Nc2cccc(S(N)(=O)=O)c2)nc1-c1cccc2[nH]ccc12 [Compound 33, 3-[4-(1H-Indol-4-yl)-5-methoxy-pyrimidin-2-ylamino]-benzenesulfonamide]
< 5 µM | < 5 µM | < 5 µM | – | – | – | NS(=O)(=O)c1cccc(Nc2ncc(F)c(-c3cccc4[nH]ccc34)n2)c1 [Compound 34, 3-[5-Fluoro-4-(1H-indol-4-yl)-pyrimidin-2-ylamino]-benzenesulfonamide]
< 5 µM | < 5 µM | < 5 µM | – | 5 to 15 µM | < 5 µM | Cc1ccc2[nH]ccc2c1-c1ccnc(Nc2cccc(S(C)(=O)=O)c2)n1 [Compound 35, (3-Methanesulfonyl-phenyl)-[4-(5-methyl-1H-indol-4-yl)-pyrimidin-2-yl]-amine]
